Measurements from patent publication US20100047314A1 (OsteoGeneX Inc., priority 2008, published 2010).

Experiments:
male C57BL/6 mice [1] = assay: Trabecular bone volume by micro-CT analysis on proximal tibia and lumbar L5; format: in vivo, mouse
Procedure: (§1) Four month old male C57BL/6 mice were treated daily with saline vehicle or the sclerostin inhibitor of calcium folinate at 10-100 mg/kg (via i.p) for 30 days. Study endpoints included a biochemical marker of bone formation; osteocalcin, measured by EIA Elisa, and measurement of trabecular bone volume by mico-CT analysis on the proximal tibia and Lumbar L5.

male C57BL/6 mice [2] = assay: Serum osteocalcin bone formation marker by EIA Elisa in mice treated 30 days; format: in vivo, mouse; conditions: 100 mg/kg i.p. daily for 30 days, four month old male C57BL/6 mice
Procedure: as §1

Wnt pathway = assay: Modulation of the Wnt pathway (FIG. 1); conditions: doses of 2.5 ng (low), 60 ng (medium), 125 ng (high) and 1250 ng (very high)
Excerpt: (§2) Compounds useful in the methods of the present invention can be identified via a variety of methods known to one of skill in the art. Several exemplary methods for identifying such antagonists are described herein, including cell-based and in vitro techniques (Journal of Bone and Mineral Research 2006, 21(11), 1738-1749). A general method of identifying SOST antagonists involves evaluating the effects of antagonist candidates on bone formation under controlled conditions. Preferably bone formation is determined using micro-CT techniques on live animals. Preferred animals include rodents, more preferred are primates. Femur, tibia and vertebrae bones are particularly useful subjects for such study.

mouse = assay: Mouse bone formation assay of SOST antagonist candidates, examined by micro-CT; format: in vivo; conditions: versus control solution
Excerpt: as §2
Briefly, the test animal is treated with a predetermined dose of a SOST antagonist candidate. […]
Once the dosing schedule has been completed, both test and control animals are examined to determine the quantity of bone formation present. […] Where necessary, levels of bone formation can be calculated by determining the volume of bone formation present in each animal. […]
For example, the mouse test animal is treated with a predetermined dose of a SOST antagonist candidate for a complete dosing schedule. […] Once the dosing schedule has been completed, both test and control animals are examined with sacrifice using micro-CT to determine the quantity of bone formation present.

Row | Structure (SMILES) | increase in bone volume for the tibia over baseline controls (male C57BL/6 mice [1]; 10 mg/kg i.p. daily for 30 days, proximal tibia, micro-CT) | increase in bone volume for lumbar L5 over controls (male C57BL/6 mice [1]; 100 mg/kg i.p. daily for 30 days, lumbar L5, micro-CT) [%] | percent increase in serum osteocalcin bone formation marker over saline controls (male C57BL/6 mice [2]) [%] | modulation of the Wnt pathway to promote bone growth (Wnt pathway) | quantity of bone formation (promotion of bone growth) (mouse)
1 | Nc1nc(=O)c2c([nH]1)NCC(CNc1ccc(C(=O)N[C@@H](CCC(=O)[O-])C(=O)[O-])cc1)N2C=O.[Ca+2] (some centres unmarked) [calcium folinate] | greater than 37% | 51 | 41 |  | 
2 | Nc1nc(=O)c2c([nH]1)NCC(CNc1ccc(C(=O)NC(CCC(=O)O)C(=O)O)cc1)N2C=O (centres unmarked) [folinic acid] |  |  |  | modulating the Wnt pathway to promote bone growth | promoting bone growth
